Results: ChEMBL document CHEMBL1131692, “A study of novel antiallergic agents with eosinophilic infiltration inhibiting action” (Bioorg Med Chem Lett, 1999)

Species: Cavia porcellus
Assay: Evaluated for antihistamine action using guinea pig ilea
Type: functional
Conditions: read-out: pA2 (converted)

| Compound | Kb |
| --- | --- |
| Cc1cc(OCCCN2CCN(C(c3ccccc3)c3ccccc3)CC2)c(C)c(C)c1O | 74.1 nM |
| Cc1cc(OCCCCCCCCN2CCN(C(c3ccccc3)c3ccccc3)CC2)c(C)c(C)c1O | 275 nM |
| Cc1cc(OCCCCCN2CCN(C(c3ccccc3)c3ccccc3)CC2)c(C)c(C)c1O | 151 nM |
| Cc1cc(OCCN2CCN(C(c3ccccc3)c3ccccc3)CC2)c(C)c(C)c1O | 117 nM |
| Cc1cc(OCCCCCCN2CCN(C(c3ccccc3)c3ccccc3)CC2)c(C)c(C)c1O | 155 nM |
| Cc1cc(OCCCCN2CCN(C(c3ccccc3)c3ccccc3)CC2)c(C)c(C)c1O | 77.6 nM |
| O=c1[nH]c2ccccc2n1CCCN1CCN(C(c2ccccc2)c2ccccc2)CC1 [OXATOMIDE] | 45.7 nM |
| Cc1cc(OCCCCCCCCCCN2CCN(C(c3ccccc3)c3ccccc3)CC2)c(C)c(C)c1O | 407 nM |
